The source of these data is patent publication US9744220B2, “Compositions and methods for treating inflammatory diseases” (priority 2013, dated 2017).

Test [1] concerns Trk. The test can be described thus: Pharmacological Trk inhibition of sPDNF-stimulated H9c2 cardiomyocytes. Format: cell-based, rat. The settings on record: K252a 200 nM 1 hr pre-incubation, sPDNF 1 μg/ml 3 hr.
Method: Pharmacological inhibition: H9c2 cardiomyocytes were stimulated with sPDNF (1 μg/ml, 3 hr) without pretreatment (sPDNF) or after pretreatment with K252a (200 nM, 1 hr) (K252a+sPDNF), and transcripts of MCP-1 (FIG. 9A) and FKN (FIG. 9B) quantified by qPCR. Chemokine gene expression was normalized to HPRT and fold change calculated relative to vehicle-treated cells. Bars represent mean±SD fold change expression of duplicate samples, *P<0.05 and **P<0.01; experiment performed three times, each giving similar results.
First, H9c2 cardiomyocytes were pre-incubated (1 hr) with the Trk antagonist K252a, which blocks Trk signaling by inhibiting Trk autophosphorylation (53), followed by stimulation (3 hr) with sPDNF (1 μg/ml) or vehicle PBS, and quantification of MCP-1 and FKN transcripts by qPCR.
H9c2 cells were pre-treated with 0.1% DMSO vehicle control or 200 nM K252a for 1 h prior to addition of sPDNF (1 μg/ml). Supernatants and cell monolayers were collected for quantification of secreted chemokines and cells were harvested for mRNA quantification by qPCR.
The subject of test [2] is TrkA-positive PC12 cells. The settings on record: bacterially-expressed truncated PDNF; cited from earlier work.

`COC(=O)[C@@]1(O)C[C@H]2O[C@]1(C)n1c3ccccc3c3c4c(c5c6ccccc6n2c5c31)C(=O)NC4` [K252a]: in test [1], the “effect on sPDNF stimulation of FKN transcripts” value was “completely abrogated” and the “effect on sPDNF stimulation of MCP-1 transcripts” value is recorded as “completely abrogated”.

B1: truncated PDNF corresponding to amino acids 1-445 of SEQ ID NO:2: bacterially-expressed truncated PDNF, amino acids 1-445 of SEQ ID NO:2 (protein, listed as Trypanosoma cruzi)
chain: MGKTVVVASRMFWLMFFVPLLLAICPSEPAYALAPGSSRVELFKRKNSTVPFEDKAGKVTERVVHSFRLPALVNVDGVMVAIADARYDTSNDNSLIDTVAKYSVDDGETWETQIAIKNSRVSSVSRVVDPTVIVKGNKLYVLVGSYYSSRSYWSSHGDARDWDILLAVGEVTKSTAGGKITASIKWGSPVSLKKFFPAEMEGMHTNQFLGGAGVAIVASNGNLVYPVQVTNKKKQVFSKIFYSEDDGKTWKFGKGRSDFGCSEPVALEWEGKLIINTRVDWKRRLVYESSDMEKPWVEAVGTVSRVWGPSPKSNQPGSQSSFTAVTIEGMRVMLFTHPLNFKGRWLRDRLNLWLTDNQRIYNVGQVSIGDENSAYSSVLYKDDKLYCLHEINTDEVYSLVFARLVGELRIIKSVLRSWKNWDSHLSSICTPADPAASSSESGCGP
B1: the “survival and differentiation of TrkA-positive PC12 cells” value in test [2] is “promoted survival and differentiation”.

B2: truncated PDNF equivalent to amino acids 1-425 of SEQ ID NO:2: truncated PDNF, amino acids 1-425 of SEQ ID NO:2 (protein, listed as Trypanosoma cruzi)
chain: MGKTVVVASRMFWLMFFVPLLLAICPSEPAYALAPGSSRVELFKRKNSTVPFEDKAGKVTERVVHSFRLPALVNVDGVMVAIADARYDTSNDNSLIDTVAKYSVDDGETWETQIAIKNSRVSSVSRVVDPTVIVKGNKLYVLVGSYYSSRSYWSSHGDARDWDILLAVGEVTKSTAGGKITASIKWGSPVSLKKFFPAEMEGMHTNQFLGGAGVAIVASNGNLVYPVQVTNKKKQVFSKIFYSEDDGKTWKFGKGRSDFGCSEPVALEWEGKLIINTRVDWKRRLVYESSDMEKPWVEAVGTVSRVWGPSPKSNQPGSQSSFTAVTIEGMRVMLFTHPLNFKGRWLRDRLNLWLTDNQRIYNVGQVSIGDENSAYSSVLYKDDKLYCLHEINTDEVYSLVFARLVGELRIIKSVLRSWKNWDSHL
Turning to B2, the “survival and differentiation of TrkA-positive PC12 cells” value in test [2] is “did not”.
